Data: ChEMBL document CHEMBL4049425, “Fragment-Based, Structure-Enabled Discovery of Novel Pyridones and Pyridone Macrocycles as Potent Bromodomain and Extra-Terminal Domain (BET) Family Bromodomain Inhibitors” (J Med Chem, 2017)
Activity calls are given as the source filed them. No cut-off for these calls is given here.

Assays:
MX1 = experiment: Antiproliferative activity against human MX1 cells after 72 hrs by Cell Titer Glo assay; assay type: functional, cell-based; settings: MX1, 72 h
[1] = target: T1, Bromodomain-containing protein 4 (Homo sapiens, UniProt O60885); experiment: Inhibition of human N-terminal His6-tagged BRD4 BD1-BD2 (57 to 550 residues) expressed in EScherichia coli BL21(DE3) after 1 hr by Alexa-647-conjugated probe based TR-FRET assay
[2] = target: T1, Bromodomain-containing protein 4; experiment: Inhibition of BRD4 in human NCI-H1299 cells after 24 hrs by Bright-Glo luciferase reporter gene assay; assay type: cell-based
Liver [3] = experiment: Unbound intrinsic clearance in human liver microsomes; assay type: ADME, microsome
Liver [4] = experiment: Unbound intrinsic clearance in mouse liver microsomes; assay type: ADME, microsome
Liver [5] = experiment: Unbound intrinsic clearance in rat liver microsomes; assay type: ADME, microsome
[6] = Fraction unbound in mouse plasma at 1 uM after 4 hrs by LC-MS/MS analysis; assay type: ADME, cell-free
[7] = Permeability of the compound by PAMPA; assay type: physicochemical; settings: read-out: permeability
Mus musculus [8] = experiment: Unbound clearance in mouse at 1 mg/kg, iv or 1 mg/kg, po; assay type: ADME, organism-based; settings: in vivo
Mus musculus [9] = experiment: Unbound AUC in mouse at 1 mg/kg, po; assay type: ADME, organism-based; settings: in vivo
Mus musculus [10] = experiment: Fraction absorbed in portal vein of mouse at 1 mg/kg, iv or 1 mg/kg, po; assay type: ADME, organism-based; settings: in vivo
[11] = Oral bioavailability in mouse at 1 mg/kg; assay type: ADME, organism-based; settings: in vivo
[12] = Lipophilicity, log D of the compound; assay type: physicochemical; settings: octanol/water
Rattus norvegicus [13] = experiment: Unbound clearance in rat at 1 mg/kg, iv or 1 mg/kg, po; assay type: ADME, organism-based; settings: in vivo
Rattus norvegicus [14] = experiment: Unbound AUC in rat at 1 mg/kg, po; assay type: ADME, organism-based; settings: in vivo
Rattus norvegicus [15] = experiment: Fraction absorbed in portal vein of rat at 1 mg/kg, iv or 1 mg/kg, po; assay type: ADME, organism-based; settings: in vivo
[16] = Oral bioavailability in rat at 1 mg/kg; assay type: ADME, organism-based; settings: in vivo
[17] = Fraction unbound in rat plasma; assay type: ADME, cell-free
OPM-2 [18] = experiment: Antitumor activity against human OPM2 cells xenografted in SCID-Beige mouse assessed as tumor growth inhibition at 1 mg/kg, po qd for 21 days relative to control; assay type: functional; settings: OPM-2, po, 504 h, read-out: TGI
Mus musculus [19] = experiment: Toxicity in SCID-Beige mouse xenografted with human OPM2 cells assessed as weight loss at 1 mg/kg, po qd for 21 days (reference value: 2%); assay type: organism-based; settings: in vivo, 504 h
OPM-2 [20] = experiment: Antiproliferative activity against human OPM2 cells; assay type: functional, cell-based
Mus musculus [21] = experiment: Toxicity in SCID-Beige mouse xenografted with human OPM2 cells assessed as weight loss at 2 mg/kg, po qd for 21 days (reference value: 2%); assay type: organism-based; settings: in vivo, 504 h
OPM-2 [22] = experiment: Antitumor activity against human OPM2 cells xenografted in SCID-Beige mouse assessed as tumor growth inhibition compound administered po qd for 21 days; assay type: functional, organism-based
OPM-2 [23] = experiment: Antitumor activity against human OPM2 cells xenografted in SCID-Beige mouse assessed as tumor growth inhibition at 2 mg/kg, po qd for 21 days relative to control; assay type: functional; settings: OPM-2, po, 504 h, read-out: TGI
Plasma [24] = experiment: Free plasma concentration required to reach in vitro EC50 for human OPM2 cells in SCID-Beige mouse xenografted with human OPM2 cells at 1 to 2 mg/kg, po
[25] = Fraction unbound in SCID-Beige mouse plasma xenografted with human OPM2 cells at 1 to 2 mg/kg, po; assay type: ADME, organism-based
Mus musculus [26] = experiment: Time required to reach in vitro EC50 for human OPM2 cells in SCID-Beige mouse xenografted with human OPM2 cells at 2 mg/kg, po
Mus musculus [27] = experiment: Unbound plasma clearance in mouse at 3 mg/kg, iv or 10 mg/kg, po; assay type: ADME, organism-based; settings: in vivo
Mus musculus [28] = experiment: Dose normalized fAUC in mouse at 3 mg/kg, iv or 10 mg/kg, po; assay type: ADME, organism-based; settings: in vivo
Mus musculus [29] = experiment: Fraction absorbed in portal vein of mouse at 3 mg/kg, iv or 10 mg/kg, po; assay type: ADME, organism-based; settings: in vivo
[30] = Oral bioavailability in mouse at 10 mg/kg; assay type: ADME, organism-based; settings: in vivo
OPM-2 [31] = experiment: Antitumor activity against human OPM2 cells xenografted in SCID-Beige mouse assessed as tumor growth inhibition at 3 mg/kg, po qd for 21 days relative to control; assay type: functional; settings: OPM-2, po, 504 h, read-out: TGI
Mus musculus [32] = experiment: Toxicity in SCID-Beige mouse xenografted with human OPM2 cells assessed as weight loss at 3 mg/kg, po qd for 21 days (reference value: 2%); assay type: organism-based; settings: in vivo, 504 h
[33] = Fraction unbound in SCID-Beige mouse plasma xenografted with human OPM2 cells at 1 to 3 mg/kg, po; assay type: ADME, organism-based
Plasma [34] = experiment: Free plasma concentration required to reach in vitro EC50 for human OPM2 cells in SCID-Beige mouse xenografted with human OPM2 cells at 1 to 3 mg/kg, po
Mus musculus [35] = experiment: Time required to reach in vitro EC50 for human OPM2 cells in SCID-Beige mouse xenografted with human OPM2 cells at 3 mg/kg, po
OPM-2 [36] = experiment: Antitumor activity against human OPM2 cells xenografted in SCID-Beige mouse assessed as tumor growth inhibition at 1 to 3 mg/kg, po qd measured after 21 days; assay type: functional, organism-based

Row | Ki [1] [µM] | EC50 [2] [µM] | CL free (Liver [3]) [mL/min/kg] | CL free (Liver [4]) [mL/min/kg] | CL free (Liver [5]) [mL/min/kg] | fraction unbound at 4 h, 1 µM [6] | Papp [7] [×10⁻⁶ cm/s] | CL free (Mus musculus [8]) [mL/min/kg] | fAUC (Mus musculus [9]) [ng·h/mL] | FaFg (Mus musculus [10]) | bioavailability [11] [%] | logD [12] | CL free (Rattus norvegicus [13]) [mL/min/kg] | fAUC (Rattus norvegicus [14]) [ng·h/mL] | FaFg (Rattus norvegicus [15]) | bioavailability [16] [%] | fraction unbound [17] | Structure (SMILES) | EC50 (MX1) [µM] | inhibition in vivo at 1 mg/kg (OPM-2 [18]) [%] | Activity (Mus musculus [19]) [%] | also measured
1 | 0.0015 | 0.0051 | < 217 | 2330 | 433 | 0.01 | 2.2 | 417 | 16 | 0.41 | 39 | 2.8 to 4.3 | 2330 | 1 | 0.44 | 16 | 0.02 | CCS(=O)(=O)Nc1ccc2c(c1)-c1cn(C)c(=O)cc1OCCCCc1cc(Cl)ccc1O2 | 0.0057 |  |  | 
2 | 0.011 | 0.024 | 56.7 | 158 | 107 | 0.12 | 12 | 88.3 | 85 | 0.51 | 45 | 2.8 to 4.3 | 142 | 2 | 0.42 | 2.8 | 0.24 | Cn1cc2c(cc1=O)OCCCCc1cc(Cl)ccc1Oc1ncc(CS(C)(=O)=O)cc1-2 | 0.024 |  |  | 
3 | 0.0089 | 0.034 | 58.3 | 267 | 73.3 | 0.04 | 15 | 140 | 100 | 0.9 | 84 | 2.8 to 4.3 | 233 | 69 | 1 | 95 | 0.09 | CCS(=O)(=O)c1cnc2c(c1)-c1cn(C)c(=O)cc1OCCCCc1cc(Cl)ccc1O2 | 0.033 | 73 | 4 | EC50 (OPM-2 [20]): 0.012 µM; Activity (Mus musculus [21]): 4%; TGI (OPM-2 [22]): Dose-dependent effect; inhibition in vivo at 2 mg/kg (OPM-2 [23]): 85%; Cp(f) (Plasma [24]): 0.3 µM; fraction unbound [25]: 0.04; Time (Mus musculus [26]): >12 h
4 | 0.013 | 0.056 | 76.7 | 267 | 250 | 0.14 |  |  |  |  |  | 2.8 to 4.3 |  |  |  |  |  | CCS(=O)(=O)Nc1ccc(Oc2ccc(F)cc2F)c(-c2cn(C)c(=O)cc2OC)c1 | 0.047 | 66 | 6 | CL free (Mus musculus [27]): 183 mL/min/kg; fAUC/dose (Mus musculus [28]): 0.081 µg·h/mL per mg/kg; FaFg (Mus musculus [29]): 0.89; bioavailability [30]: 63%; inhibition in vivo at 3 mg/kg (OPM-2 [31]): 73%; Activity (Mus musculus [32]): 5%; EC50 (OPM-2 [20]): 0.023 µM; fraction unbound [33]: 0.14; Cp(f) (Plasma [34]): 0.16 µM; Time (Mus musculus [35]): 6.5 h; TGI (OPM-2 [36]): inactive
